Peptide text beside a SMILES is read from it.
Legend:
PDPN in A875 cells = assay: Immunofluorescence binding/co-localization with PDPN, A875; format: cell-based; conditions: 5 μM, 10 h, 37 ℃
Procedure: Immunofluorescence analysis was used for antigen localization and quantification. For PDPN immunofluorescence staining, melanoma cells (A375, A875) were seeded in coverslips, cultured for 24 h, and fixed using 4% paraformaldehyde for 15 min at room temperature (RT). The cells were then permeabilized with 0.2% Triton X-100 in PBS for 10 min. Cells were blocked using 1% bovine serum albumin (BSA) in PBS for 30 min at RT, and incubated with the primary antibody overnight at 4 ℃. Afterwards, cells were washed three times with PBS containing 0.01% Triton X-100 for 5 min, and incubated with Alexa Fluor 568–conjugated secondary antibodies at RT for 1 h. Lastly, the nuclei were dyed with 4’,6-diamidino-2-phenylindole (DAPI) for 5 min at RT, and the slides were imaged using a NIKON laser scanning confocal microscope. To further verify the specificity binding ability of CY12-RP2 with PDPN, immunofluorescence was detected for analysis in melanoma cells. Briefly, A375 or A875 cells were incubated with CY12-RP2 at a concentration of 5 μM for 10 h at 37 ℃, and then washed with DMEM to remove the unbound peptide. The anti-PDPN primary antibody was then incubated for 4 h at RT. Further experimental procedures were performed as described above. […]

A875 cells = assay: Colony formation, A875; format: cell-based
A375 cells = assay: Wound healing (migration), A375; format: cell-based; conditions: wound healing, 0, 5, 25 μM, 24 h or 48 h
Procedure: A375 GFP, A875 GFP, A375 PDPN^−/−, and A875 PDPN^+/+ cells were all seeded in 12-well plates at a density of 5 × 10^5 cells/well. When the cells reached 100% confluence the next day, the straight wound was scraped in each cultured well with a 20 µL pipette tip. Then the cells were washed repeatedly with complete DMEM to remove the cellular debris, and the medium was changed to a low serum medium containing 0.05% FBS. The scratch-treated cells were subsequently cultured for an additional indicated time and imaged at 0 h, 12 h, 24 h and 48 h. Quantification of wound closure was accomplished by measuring the distance between the phase contrast images’ anterior edges of the contralateral surfaces using ImageJ software. As for peptide (CY12-RP2) function experiments, images of phase contrast for A375 GFP and A875 GFP cells were captured at 0 h before peptide administration. The cells were then treated with CY12-RP2 (0 μM, 5 μM, 25 μM) for 24 h or 48 h, and then images were acquired again. Handling of the experimental results were carried out as previously described.

[1] = system: EMT and apoptosis signaling in A375 cells; assay: Western blot, EMT and apoptosis proteins, A375; format: cell-based; conditions: 0, 5, 25 μM, 48 h
Procedure: Melanoma cells were cultured in a 60 mm dish with a complete medium and various peptide concentrations (0 μM, 5 μM, 25 μM). Protein was extracted after cells were cultured or treated for 48 h using protein lysis buffer, separated using a 10% or 15% Bis–Tris PAGE gel (Epizyme Biomedical Technology, Shanghai, China), and transferred onto a PVDF membrane (Thermo Fisher Scientific) according to standard techniques. The Western blots were imaged using Bio-rad Chemidoc MP and quantified using ImageJ software (NIH).

[2] = Serum hepatic function index, xenograft nude mice (ELISA); format: in vivo, BALB/c nude mice; conditions: vs control, 25 and 100 mg/kg
Procedure: Tumorigenesis assays were conducted in vivo using BALB/c nude mice and BALB/c mice from Guangdong Medical Laboratory Animal Center. The animal study was reviewed and approved by the Administrative Committee on Animal Research of Shenzhen International Graduate School, Tsinghua University (Ethical Development No. 16, 10 November 2021). Samples with 5 × 10^5 A375 or B16F10-Luc melanoma cells were diluted in 100 μL PBS and injected subcutaneously into 6- to 8-week-old female BALB/c nude mice or BALB/c mice. 5 days later, the mice were treated with CY12-RP2 by tail vein administration at various doses (25 mg/kg and 100 mg/kg) every two days. The tumor volume and body weight were measured every 2 days, with the calculation of the tumor volume under the assumption of an ellipsoidal tumor as: tumor volume = length × width^2/2. Tumors from BALB/c nude mice were collected and photographed on day 21, while tumors from the allograft mouse model were measured using bioluminescence imaging. The blood collected from the eyes of BALB/c nude mice were stored at 4 °C for 24 h and then centrifuged for 15 min under the indicated conditions (4 °C, 3000 rpm). The supernatant was collected and assayed for drug toxicity using kits, including AST, ALT, TG, and γ-GT. […]
Fig. S5: Effects and toxicity of CY12-RP2 in vivo […]
(E) Serum ALT, AST, TG, and γ-GT levels of the orthotopic xenografts model were
measured by ELISA. (F) H&E staining of liver, heart, spleen, lung, and kidney treated

[3] = system: liver, heart, spleen, lung and kidney; conditions: mouse, in vivo
Procedure: For histopathological analysis, after BALB/c nude mice were sacrificed, organs (heart, liver, spleen, lung, and kidney) were collected and fixed in 4% paraformaldehyde for 24 h at RT. The fixed organs were then dehydrated and inserted in paraffin, and prepared in 2 µm sections. The prepared sections and experimental procedures were routinely carried out by Servicebio company.

For CC(C)C[C@H](NC(=O)[C@H](Cc1ccc(O)cc1)NC(=O)[C@@H](N)[C@@H](C)O)C(=O)N[C@@H](CS)C(=O)N[C@H](C(=O)N[C@@H](C)C(=O)N[C@@H](CS)C(=O)N[C@@H](CC(=O)O)C(=O)N[C@@H](Cc1ccc(O)cc1)C(=O)N[C@H](C(=O)N[C@@H](Cc1c[nH]cn1)C(=O)N[C@@H](Cc1c[nH]cn1)C(=O)O)[C@@H](C)O)[C@@H](C)O [CY12-RP2] (H-TYLCTACDYTHH-OH; N-terminus and C-terminus assumed), the “fluorescence and co-localization with PDPN” value (PDPN in A875 cells) was “minimal fluorescence”, the colony formation (A875 cells) was “only having inhibitory effects on A875 cells at high concentrations” and the migration (A375 cells) was “inhibited migration at the corresponding time both in A375 and A875 cells, but A375 cells were more susceptible”. For the same molecule, the “expression of E-cadherin, Caspase-9, Caspase-3, and Bax” value [1] was “significantly increased”, the “expression of N-cadherin, vimentin, snail, and BCL2” value [1] was “decreased” and the ALT [2] was “not significantly changed”. The AST [2] was “not significantly changed”, the TG [2] was “increased” and the γ-GT [2] was “increased”. For the same molecule, the “toxic effect on organs (overall)” value [3] was “slightly toxic effect”.
